Experimental data reported in ChEMBL document CHEMBL4725382, “Uridine natural products: Challenging targets and inspiration for novel small molecule inhibitors” (Bioorg Med Chem, 2020).
In brackets after ≈: the same amount, converted by molar mass.

tested on: Mycobacterium tuberculosis; assay: Antimycobacterial activity against Mycobacterium tuberculosis H37Rv ATCC 27294 after 14 days by resazurin reduction microplate assay; type: functional; conditions: H37Rv ATCC 27294, 336 h

| SMILES | MIC50 [µM] |
| --- | --- |
| C[C@@H](O)[C@H](NC(=O)N[C@@H](Cc1c[nH]c2ccccc12)C(=O)O)C(=O)N[C@H](C(=O)NC[C@H]1C[C@@H](O)[C@H](n2ccc(=O)[nH]c2=O)O1)[C@H](C)N(C)C(=O)CN | 2.8 (≈ 2.04 µg/mL) |
| CC(C)[C@H](NC(=O)N[C@@H](Cc1c[nH]c2ccccc12)C(=O)O)C(=O)N[C@H](C(=O)NC[C@H]1C[C@@H](O)[C@H](n2ccc(=O)[nH]c2=O)O1)[C@H](C)N(C)C(=O)CN | 0.88 (≈ 0.64 µg/mL) |
| C[C@@H]([C@H](NC(=O)[C@H](Cc1ccccc1)NC(=O)N[C@@H](Cc1c[nH]c2ccccc12)C(=O)O)C(=O)NC[C@H]1C[C@@H](O)[C@H](n2ccc(=O)[nH]c2=O)O1)N(C)C(=O)CN | 0.26 (≈ 0.202 µg/mL) |
| CC(C)C[C@H](NC(=O)N[C@@H](Cc1c[nH]c2ccccc12)C(=O)O)C(=O)N[C@H](C(=O)NC[C@H]1C[C@@H](O)[C@H](n2ccc(=O)[nH]c2=O)O1)[C@H](C)N(C)C(=O)[C@@H](N)Cc1cccnc1 | 5.85 (≈ 4.87 µg/mL) |
| CC(C)C[C@H](NC(=O)N[C@@H](Cc1c[nH]c2ccccc12)C(=O)O)C(=O)N[C@H](C(=O)NC[C@H]1C[C@@H](O)[C@H](n2ccc(=O)[nH]c2=O)O1)[C@H](C)N(C)C(=O)[C@@H](N)Cc1ccccc1 | 4.05 (≈ 3.37 µg/mL) |
| CC(C)C[C@H](NC(=O)N[C@@H](Cc1c[nH]c2ccccc12)C(=O)O)C(=O)N[C@H](C(=O)NC[C@H]1C[C@@H](O)[C@H](n2ccc(=O)[nH]c2=O)O1)[C@H](C)N(C)C(=O)[C@@H](N)CC(=O)O | 9.8 (≈ 7.84 µg/mL) |
| C[C@@H]([C@H](NC(=O)[C@H](Cc1c[nH]c2ccccc12)NC(=O)N[C@@H](Cc1c[nH]c2ccccc12)C(=O)O)C(=O)NC[C@H]1C[C@@H](O)[C@H](n2ccc(=O)[nH]c2=O)O1)N(C)C(=O)CN | 0.44 (≈ 0.359 µg/mL) |
| CCCCC[C@H](NC(=O)N[C@@H](Cc1c[nH]c2ccccc12)C(=O)O)C(=O)N[C@H](C(=O)NC[C@H]1C[C@@H](O)[C@H](n2ccc(=O)[nH]c2=O)O1)[C@H](C)N(C)C(=O)CN | 0.51 (≈ 0.385 µg/mL) |
| CC(C)C[C@H](NC(=O)N[C@@H](Cc1c[nH]c2ccccc12)C(=O)O)C(=O)N[C@H](C(=O)NC[C@H]1C[C@@H](O)[C@H](n2ccc(=O)[nH]c2=O)O1)[C@H](C)N(C)C(=O)[C@@H](N)Cc1ccc2ccccc2c1 | 3 (≈ 2.65 µg/mL) |
| C[C@@H]([C@H](NC(=O)[C@@H](NC(=O)N[C@@H](Cc1c[nH]c2ccccc12)C(=O)O)C1CCCCC1)C(=O)NC[C@H]1C[C@@H](O)[C@H](n2ccc(=O)[nH]c2=O)O1)N(C)C(=O)CN | 0.51 (≈ 0.392 µg/mL) |
| C[C@@H]([C@H](NC(=O)[C@H](Cc1cccnc1)NC(=O)N[C@@H](Cc1c[nH]c2ccccc12)C(=O)O)C(=O)NC[C@H]1C[C@@H](O)[C@H](n2ccc(=O)[nH]c2=O)O1)N(C)C(=O)CN | 0.98 (≈ 0.761 µg/mL) |
| CC(C)C[C@H](NC(=O)N[C@@H](Cc1c[nH]c2ccccc12)C(=O)O)C(=O)N[C@H](C(=O)NC[C@H]1C[C@@H](O)[C@H](n2ccc(=O)[nH]c2=O)O1)[C@H](C)N(C)C(=O)[C@@H](N)CCCN | 0.95 (≈ 0.759 µg/mL) |
| C[C@@H]([C@H](NC(=O)[C@H](Cc1ccc(O)cc1)NC(=O)N[C@@H](Cc1c[nH]c2ccccc12)C(=O)O)C(=O)NC[C@H]1C[C@@H](O)[C@H](n2ccc(=O)[nH]c2=O)O1)N(C)C(=O)CN | 0.52 (≈ 0.412 µg/mL) |
| CC(C)C[C@H](NC(=O)N[C@@H](Cc1c[nH]c2ccccc12)C(=O)O)C(=O)N[C@H](C(=O)NC[C@H]1C[C@@H](O)[C@H](n2ccc(=O)[nH]c2=O)O1)[C@H](C)N(C)C(=O)[C@@H](N)CCCCN | 1.35 (≈ 1.1 µg/mL) |
| CC[C@H](C)[C@H](NC(=O)N[C@@H](Cc1c[nH]c2ccccc12)C(=O)O)C(=O)N[C@H](C(=O)NC[C@H]1C[C@@H](O)[C@H](n2ccc(=O)[nH]c2=O)O1)[C@H](C)N(C)C(=O)CN | 0.93 (≈ 0.69 µg/mL) |
| CC(C)C[C@H](NC(=O)N[C@@H](Cc1c[nH]c2ccccc12)C(=O)O)C(=O)N[C@H](C(=O)NC[C@H]1C[C@@H](O)[C@H](n2ccc(=O)[nH]c2=O)O1)[C@H](C)N(C)C(=O)CN | 0.63 (≈ 0.467 µg/mL) |
| CC(C)C[C@H](NC(=O)N[C@@H](Cc1c[nH]c2ccccc12)C(=O)O)C(=O)N[C@H](C(=O)NC[C@H]1C[C@@H](O)[C@H](n2ccc(=O)[nH]c2=O)O1)[C@H](C)N(C)C(=O)[C@H](C)N | 0.6 (≈ 0.453 µg/mL) |
